# pIC50: −log10 of the molar value.
# Experiments:
# [1] = tested on: MCF-7 (Human mammary gland adenocarcinoma); assay: cells; type: cell-based; conditions: MCF7, MCF-7, 72 hours, precision +/−0.5 or better
# Excerpt: (§1) A full factorial experimental design was used, for a total of 28 cases.
# (§2) For each (cell line, compound) pair, the following conditions were used, with each condition being assigned to a lane on a microtiter plate: • a. Seven or eight concentration levels between 1×10^−10 M and 1×10^−3 M. • b. A control with cells and media only. • c. A control with cells, media and DMSO only. The DMSO was at a concentration approximately equal to that used in the highest drug concentration level.
# (§3) Additionally, 6-8 replicates (wells) of each condition were done on the plate. Drug solutions were prepared by dissolving the solid compounds in DMSO and then diluting in water. An approximately equal number of cells were introduced into each well of the plate and cells were incubated for 72 hours. An MTS assay was performed and absorbance values were measured with a spectrophotometer. Finally, a log IC50 parameter was calculated by fitting a 4-parameter logistic model to the data using an implementation of the Levenberg-Marquardt algorithm.
# [2] = tested on: A549 (Human lung adenocarcinoma); assay: cells; type: cell-based; conditions: A549, 72 hours, precision +/−0.5 or better
# Excerpt: as §1, §2, §3
# [3] = tested on: NCI-H226 (Human lung squamous cell carcinoma); assay: cells; type: cell-based; conditions: NCI-H226, 72 hours, precision +/−0.5 or better
# Excerpt: as §1, §2, §3
# [4] = tested on: CCRF-CEM (Human T-lymphoblastoids from ALL); assay: cells; type: cell-based; conditions: 72 hours, precision +/−0.5 or better
# Excerpt: as §1, §2, §3
# CEM cells [5] = type: cell-based, Human
# [6] = Dissolution of drug for cytotoxicity testing; type: physicochemical; parameters: key: X*: Did not dissolve at normal pH; conditions: footnote of Table 3
# Procedure: Drug solutions were prepared by dissolving it into 4.5% dimethylsulfoxide and diluting with distilled water to a final concentration of 1 mM. A series of dilutions were prepared and a wavelength scan of the diluted solution was used to determine the wavelength of maximum absorbance for each compound. Five standardized drug concentrations were scanned at this pre-determined wavelength to obtain an estimate of the compound's extinction coefficient.
# CEM cells [7] = assay: HPLC-UV profile of treated CEM cells; type: cell-based, Human; conditions: for apoptotic protein signal, HPLC peak intensity: eluted at 57 min
# Procedure: Digested cell samples were fractionated with a Gold HPLC chromatograph system equipped with a Gold 166 Ultra Violet (UV) Detector and 32-Karat software (Beckman-Coulter, Mississauga, ON, Canada). For reversed-phase HPLC, a Vydac 218 TP54 Protein & Peptide C18 analytical column, 300 Å pore size, 0.46 cm×25 cm (Separation Group, Hesperia, Calif., U.S.A.) was used. The chromatograph was equipped with a Rheodyne injector (5 μL). UV detection was performed at 245 nm. Eluent A consisted of 5% acetonitrile (ACN) water solution and eluent B of 0.01% trifluoroacetic acid in 95% ACN water solution. A linear gradient from 5 to 70% ACN was applied over 60 min.
# It was assumed that signals eluted at 30-35 min were unreacted derivatives with variable intensity of 0.1 V for (28) and (35) as well as 0.35 V for (13) and 0.9 V for (6). […] An additional signal eluted at 57 min occurred in samples treated with (35) and (28) (FIGS. 10D and 10E). The signals at 57 min differ at about 5 min in elution present one from cascade of apoptotic protein in treated cells. The peak intensity of 0.3 V (28) and 0.2 V (35) corresponded to viability of cells 38% (28) and 35% (35) and unreacted derivatives 0.1 (28), 0.1 (35), respectively. The undefined additional peaks with very low intensities, less then 0.05 V, are the metabolites of derivatives or unreacted compounds.
# CEM cells [8] = assay: Viability of 3-D CEM cell cultures in Hollow Fiber Bioreactor (HFB), trypan blue; type: cell-based, Human; conditions: for number of viable cells: HFB, decreased from 10^9 cells/mL, 1000 nM, within 72 h; for viability of cells in HFB: after 3 days of treatment; for viability of cell cultures: samples analysed by HPLC
# Procedure: CEM cells (American Type Culture Collection, Manassas, Va.) were maintained in tissue culture flasks and cultured as monolayer in 20 mL of RPMI media containing 10% Fetal Bovine Serum (FBS). When the number of cells in the culture flask reached 5-6×10^6 cells/mL the culture was harvested and then inoculated into six Hollow Fiber Bioreactors (HFB, FiberCells System, Frederick, Md.) and were continuously cultured in 37° C. and 5% CO2. HFB consists of a single, hydrophylic and polysulfone fiber with 0.1 μm diameter pores. The media circulating within the HFB cartridge and polysulphone tubing, at flow rate of 14 mL/min, brings oxygen and nutrients to cells and removes CO2 and other waste. Collagen solution was used to create an extra cellular matrix between the cells and the fiber. The polysulphone fiber was coated with protein by flushing with 10 mL of coating solution containing 1 mg collagen per 1 mL Phosphate Buffered Saline (PBS). The pH was maintained in the extra-capillary space throughout the duration of experiments between 6.8 and 7.0. Due to the perfusion the HFB absorbed sufficient oxygen from the reservoir with fresh media to keep cells alive. The perfusion medium was changed weekly when the glucose level reached 2 g/L measured with a glucometer.
# Viability was assessed using trypan blue (K. Takahashi, G. Loo, Biochem. Pharm. 67 (2004) 315-324). Briefly, CEM cells were harvested from HFB, seeded in 6 well microplates and exposed to 0.4% (w/v) trypan blue dye solution. Cell number was determined manually with a hemacytometer chamber (Hausser Scientific, Horsham, Pa.).
# Approximately 4×10^4 CEM cells/ml were treated on culture plates and placed for the 72 h incubation with (2-16) and (28-38) derivatives. All compounds were used for in vitro experiments and then the derivatives were selected for HFB studies to treat 10^9 CEM cells/mL in the 3-D cultures. The cells were treated 4 weeks after the cells' inoculation in the HFB. After 72 h, the growth was inhibited over 50% for 20 nM and higher concentrations in cells treated with (6), (13), (28) and (35).
# CEM cells, American Type Culture Collection (Manassas, Va.), were maintained in tissue culture flasks and cultured as monolayer in 20 ml of RPMI media containing 10% Fetal Bovine Serum (FBS) and divided from 5×10^5 cells/mL to 2.5×10^4 cells/mL two times per week. When the number of the cells in the culture flask reached 5-6×10^6 cells/ml the culture was harvested and then inoculated into six Hollow Fiber Bioreactors (HFB, FiberCells System Inc., Frederick, Md.) and then continuously cultured in 37° C. and 5% CO2. The HFB consists of a single, hydrophylic and polysulfone fiber with 0.1 μm diameter pores. The media circulate within the HFB cartridge and polysulphone tubing, at flow rate of 14 mL/min, bringing oxygen and nutrients to cells and removing CO2 and other waste. Collagen solution was used to create an extracellular matrix between cells and fiber. The polysulfone fiber was coated with protein by flushing with 10 mL of coating solution containing 1 mg collagen per 1 mL Phosphate Buffered Saline (PBS). In this manner, CEM cells growing originally in suspension build up a 3-D solid tumor. During 4 weeks of culturing, the media were replaced each week.
# The number of cells was determined using Trypan blue (Sigma-Aldrich, Oakville, ON) exclusion method (K. Takahashi, G. Loo, Biochem. Pharmacol. 67 (2004) 315-324). Briefly, CEM cells were harvested from HFB, seeded in 6 well microplates and exposed to 0.4% (w/v) trypan blue dye solution. Cell number was determined manually with a hemacytometer chamber (Hausser Scientific, Horsham, Pa.).
# CEM cells [9] = assay: 19F MRI signal intensity of treated 3-D CEM cultures in HFB (cell number with fluorine uptake); type: cell-based, Human; conditions: for mean CEM cell density in the region with lower densities / mean number of cells in the region with higher cell densities: MRI; for mean cell concentration corresponding to mean 19F SI: cells with fluorine derivative uptake
# Procedure: All MRI experiments were performed using a 9.4 Tesla with 21 cm bore magnet (Magnex, U.K.) and TMX console (NRC-IBD, Canada). ^19F MR images were acquired using double (^19F and ^1H) tuned transmit/receive radio frequency (RF) volume coil operating at 376 MHz and 400 MHz corresponding to ^19F and ^1H Larmour frequency at 9.4 Tesla, respectively. ^1H MR images were collected in the same imaging session that ^19F MRI. Proton MR provided anatomical images of the culture. The MRI images monitored the localization of cells around the fiber in HFB as well as the volume of the cells. Moreover, ^19F MRI selectively visualizes only intracellular fluorine uptake with no background, therefore allows cell count. The cells before and after treatment with (6), (13), (28) and (35) were imaged with ^1H MRI, this allowed changes to be observed in the 3-D cell aggregation. The cells treated with 20 nM (28) and (35) were also imaged with ^19F MRI to measure fluorine content using ^19F NMR signal intensity (SI) in each HFB treated with (28) and (35). […] To obtain the calibration curves (for each derivative separately) the phantoms consisting of HFB tubes filled with 1 nM, 10 nM, 20 nM, 100 nM, 500 nM and 1000 nM of (28) or (35) and 10^3 cells, 10^4 cells, 10^5 cells, 10^6 cells, 10^7 cells, 10^8 cells and 10^9 cells were used. The linear regression was used to find the SI dependence on cell numbers. The cell numbers estimated from ^19F MR imaging were compared to the cell viability obtained from trypan blue assays. […] One 1 mm slice was acquired with a matrix size of 256×256 and a field of view of 3×3 cm for both ^19F and ^1H.
structure (smiles),measurement,setting,value
COc1cc2c(c(OC)c1OC)-c1ccc(SC)c(=O)cc1[C@@H](NC(=O)CNC(=O)C(F)(F)F)CC2 [Compound 47a],pIC50,[1],3.90
same,pIC50,[2],7.20
same,pIC50,[3],7.30
same,pIC50,[4],8.20
"COc1c(O)cc2c(c1OC)-c1ccc(SC)c(=O)cc1[C@@H](N(C(C)=O)C(=O)CNC(=O)C(F)(F)F)CC2 [Compound 47, N-[(7S)-3-hydroxy-1,2-dimethoxy-10-methylsulfanyl-9-oxo-5,6,7,9-tetrahydrobenzo[α]heptalen-7-yl]-N-[(trifluoroacetyl)glycyl]acetamide]",fold lower IC50 than IC50 of (39),CEM cells [5],about 8 fold
"COc1cc2c(c(OCc3ccccc3Cl)c1OC)-c1ccc(OC)c(=O)cc1[C@@H](NC(C)=O)CC2 [Compound 14, N-[(7S)-2,3,10-trimethoxy-9-oxo-1-((phenyl(2-chloro))methoxy)-5,6,7,9-tetrahydrobenzo[α]heptalen-7-yl]acetamide]",dissolution at normal pH,[6],X*
"CCOc1cc2c(c(OC)c1OC)-c1ccc(SC)c(=O)cc1[C@@H](N(C(C)=O)C(=O)CNC(=O)C(F)(F)F)CC2 [Compound 49, N-[(7S)-3-ethoxy-1,2-dimethoxy-10-methylsulfanyl-9-oxo-5,6,7,9-tetrahydrobenzo[α]heptalen-7-yl]-N-[(trifluoroacetyl)glycyl]acetamide]",fold lower IC50 than IC50 of (39),CEM cells [5],about 8 fold
COc1cc2c(c(OCc3cccnc3)c1OC)-c1ccc(OC)c(=O)cc1C(NC(=O)CNC(=O)C(F)(F)F)CC2 (centres unmarked) [Compound 35],"expression of MHC (class I) receptor, HPLC peak intensity",CEM cells [7]; eluted at 53 min,0.7 V
same,"apoptotic protein signal, HPLC peak intensity",CEM cells [7],0.2 V
same,number of viable cells,CEM cells [8],2.9×10^8 cells/mL
same,viability of cells in HFB,CEM cells [8],30%
same,viability of cell cultures,CEM cells [8],35%±5
same,mean CEM cell density in the region with lower densities,CEM cells [9],1.4×10^8 cells/mL
same,mean number of cells in the region with higher cell densities,CEM cells [9],4.8×10^8 cells/mL
same,mean cell concentration corresponding to mean 19F SI,CEM cells [9],6.9×10^8 cells/mL
COc1cc2c(c(OC)c1OC)-c1ccc(OC)c(=O)cc1[C@@H](NC(=O)CNC(=O)C(F)(F)F)CC2 [Compound 28a],pIC50,[2],6.20
same,pIC50,[3],6.50
same,pIC50,[4],7.40
"C=CCOc1cc2c(c(OC)c1OC)-c1ccc(SC)c(=O)cc1[C@@H](N(C(C)=O)C(=O)CNC(=O)C(F)(F)F)CC2 [Compound 48, N-[(7S)-1,2-dimethoxy-10-methylsulfanyl-9-oxo-3-(prop-2-enoxy)-5,6,7,9-tetrahydrobenzo[α]heptalen-7-yl]-N-[(trifluoroacetyl)glycyl]acetamide]",fold lower IC50 than IC50 of (39),CEM cells [5],about 8 fold
CCOc1c(OC)c(OC)cc2c1-c1ccc(OC)c(=O)cc1[C@@H](NC(=O)CNC(=O)C(F)(F)F)CC2 [Compound 28],"apoptotic protein signal, HPLC peak intensity",CEM cells [7],0.3 V
same,number of viable cells,CEM cells [8],3.45×10^8 cells/mL
same,viability of cells in HFB,CEM cells [8],35%
same,viability of cell cultures,CEM cells [8],38%±4
same,mean CEM cell density in the region with lower densities,CEM cells [9],2.4×10^8 cells/mL
same,mean number of cells in the region with higher cell densities,CEM cells [9],3.5×10^8 cells/mL
same,mean cell concentration corresponding to mean 19F SI,CEM cells [9],6.03×10^8 cells/mL

# Reference: patent US9458101B2 (priority 2009, dated 2016)
